# Assay results taken from patent publication US8889621B2, “Inhibiting binding of FGF23 to the binary FGFR-Klotho complex for the treatment of hypophosphatemia” (New York University, priority 2009, dated 2014).
# Read-outs that look alike come from different tables or passages of the source. Peptide text beside a SMILES is read from it.
# Test system: opossum kidney cell line OKP
# Format: cell-based
# Details: for effect on phosphate uptake when applied alone: 500 nM
# Source text: The effects of FGF23 proteins/peptides on sodium-coupled phosphate uptake were studied in the opossum kidney cell line OKP (Miyauchi et al., “Stimulation of transient elevations in cytosolic Ca2+ is related to inhibition of Pi transport in OK cells,” Am J Physiol 259(3 Pt 2):[…]-493 (1990), which is hereby incorporated by reference in its entirety). The cell line has many characteristics of renal proximal tubule epithelium, including sodium gradient-dependent phosphate transport and sensitivity to parathyroid hormone (Miyauchi et al., “Stimulation of transient elevations in cytosolic Ca2+ is related to inhibition of Pi transport in OK cells,” Am J Physiol 259(3 Pt 2):[…]-493 (1990), which is hereby incorporated by reference in its entirety). OKP cells also express FGFR1-4 and Klotho (see next methods section). OKP cells were grown in culture as described previously (Hu et al., “Dopamine Acutely Stimulates Na+/H+ Exchanger (NHE3) Endocytosis Via Clathrin-coated Vesicles: Dependence on Protein Kinase A-mediated NHE3 Phosphorylation,” J Biol Chem 276(29):26906-26915 (2001), which is hereby incorporated by reference in its entirety). Cells grown in 24-well plates were stimulated for 4 h with FGF23^28-251 (0.5 to 1 nM), FGF23^180-251 (500 nM), FGF23^180-205 (500 nM), or mixtures of FGF23^28-251 (1 nM) with either FGF23^180-251 (1 to 500 nM) or FGF23^180-205 (1 to 500 nM). The 1 nM concentration of FGF23^28-251 was chosen for competition experiments with FGF23 C-terminal peptides because at this concentration, half-maximum inhibition of phosphate uptake is reached. After stimulation, the cells were rinsed with Na^+-free solution followed by 5 min incubation with uptake solution containing 100 μM KH2^32PO4 (2 mCi/ml, Perkin Elmer). The reaction was stopped by aspiration of uptake solution and washing cells with ice-cold stop solution (10 mM HEPES pH 7.4, 140 mM NaCl, 1 mM MgCl2). Each transport reaction was performed in triplicates.
Molecule,effect on phosphate uptake when applied alone (4 h),IC50 (4 h) [nM],"antagonism of FGF23 inhibition of phosphate uptake (FGF23^28-251 1 nM, 4 h stimulation)","IC50 (4 h stimulation, read-out: concentration at which half-maximum inhibition of phosphate uptake is reached) [nM]"
CSCC[C@H](NC(=O)[C@H](CCCNC(=N)N)NC(=O)[C@H](C)NC(=O)[C@H](CCCNC(=N)N)NC(=O)[C@@H]1CCCN1C(=O)[C@H](CCCCN)NC(=O)[C@H](CC(C)C)NC(=O)[C@@H](NC(=O)[C@H](CC(N)=O)NC(=O)[C@H](CC(C)C)NC(=O)[C@@H]1CCCN1C(=O)[C@H](CC(=O)O)NC(=O)[C@H](CCCNC(=N)N)NC(=O)[C@H](CCC(=O)O)NC(=O)[C@H](CO)NC(=O)[C@H](CC(=O)O)NC(=O)[C@H](CC(=O)O)NC(=O)[C@H](CCC(=O)O)NC(=O)[C@H](C)NC(=O)[C@@H](N)CO)C(C)C)C(=O)N[C@H](C(=O)N1CCC[C@H]1C(=O)N[C@@H](C)C(=O)N1CCC[C@H]1C(=O)N[C@@H](C)C(=O)N[C@@H](CO)C(=O)O)[C@@H](C)O [FGF23^180-205] (H-SAEDDSERDPLNVLKPRARMTPAPAS-OH; N-terminus and C-terminus assumed),neither of the two FGF23 C-terminal peptides altered phosphate uptake,100 to 500,"similar, albeit less potent antagonistic effect",–
"FGF23^180-251: 72-amino acid C-terminal tail of human FGF23 (S180 to I251), expressed in E. coli (protein, listed as Homo sapiens) SAEDDSERDPLNVLKPRARMTPAPASCSQELPSAEDNSPMASDPLGVVRGGRVNTHAGGTGPEGCRPFAKFI",neither of the two FGF23 C-terminal peptides altered phosphate uptake,–,–,–
"FGF23^28-251: human FGF23 (A28 to I251), bioactive full-length ligand expressed in E. coli (protein, listed as Homo sapiens) ASPLLGSSWGGLIHLYTATARNSYHLQIHKNGHVDGAPHQTIYSALMIRSEDAGFVVITGVMSRRYLCMDFRGNIFGSHYFDPENCRFQHQTLENGYDVYHSPQYHFLVSLGRAKRAFLPGMNPPPYSQFLSRRNEIPLIHFNTPIPRRHTRSAEDDSERDPLNVLKPRARMTPAPASCSQELPSAEDNSPMASDPLGVVRGGRVNTHAGGTGPEGCRPFAKFI",–,–,–,1
